{
  "source": "patent US20250332139A1",
  "about": "“PS[…] AND THEIR USE FOR TREATING […] AND NE[…] DISORDERS” (Transcend Therapeutics, Inc., priority 2021, published 2025)",
  "key": {"[1]": {"system": "Sprague Dawley rats", "test": "Forced Swim Test (FST)", "type": "in vivo, rat", "source_text": "The Forced Swim Test (FST) is a classic, and the most used preclinical behavioral assay to screen compounds with antidepressant-like activity and has high predictive and face validity (Porsolt et al. (1977) Nature 266:730; Borsini and Meli (1988) Psychopharmacology 94:147). The premise of the FST is that when rats are placed into a cylinder filled with water, they will initially try to escape, but over time will become immobile. This increased immobility reflects behavioral despair, modeling a depressive-like state.\nForced Swim Test (FST): In the FST trial, rats were placed in a circular plexiglass container filled with water, with no means of escape. Water temperature was maintained at 22-25° C. and changed for every animal. After an acclimation period, rats were timed for inactivity (failure to struggle), activity, swim time and climbing time. Day 1 consisted of a 15 min acclimation trial, and Day 2 (24 h later) consisted of the 5 min test. A time sampling procedure was employed where animals were observed every 5 sec and scored for immobility, swimming, or climbing. Fluoxetine (10 mg/kg, IP, Sigma Aldrich) or 0.9% sterile saline vehicle (vehicle 3X group) were administered 23.5, 5, and 1 h before testing in the FST. […] The experimenter was blinded to treatment.\nForced Swim Test: In the FST trial, rats were placed in a circular plexiglass container filled with water, with no means of escape. Water temperature was maintained at 22-25° C. and changed for every animal. After an acclimation period, rats were timed for inactivity (failure to struggle), activity, swim time and climbing time. Day 1 consisted of a 15 min acclimation trial, and Day 2 (24 h later) consisted of the 5 min test. A time sampling procedure was employed where animals were observed every 5 sec and scored for immobility, swimming, or climbing. Fluoxetine (10 mg/kg, IP, Sigma Aldrich) or 0.9% sterile saline vehicle (vehicle 3X group) were administered 23.5, 5, and 1 h before testing in the FST. 2C-B (2.5, 10, or 20 mg/kg, IP, Cayman Chemical) or 0.9% saline vehicle (vehicle 1X group) were administered 30 min prior to FST testing. The experimenter was blinded to treatment.\nDrug Treatment: Fluoxetine (10 mg/kg, IP, Sigma Aldrich) or 0.9% sterile saline vehicle were administered 23.5, 5, and 1 h before testing in the FST. […] Control animals received fluoxetine alone, methylone alone, or saline vehicle.\nForced Swim Test: In the FST trial, rats were placed in a circular plexiglass container filled with water, with no means of escape. Water temperature was maintained at 22-25° C. and changed for every animal. After an acclimation period, rats were timed for inactivity (failure to struggle), activity, swim time and climbing time. The experimenter and scorer were blind to treatment group. Day 1 consisted of a 15 min acclimation trial, and Day 2 (24 h later) consisted of the 5 min test. A time sampling procedure was employed where animals were observed every 5 sec and scored for immobility, swimming, or climbing.\nThe FST was performed and scored by an experimenter blind to treatment group according to standard protocols and based on a “modified FST” procedure (Slattery and Cryan (2012) Nat Protoc, 7:1009). Briefly, rats were placed in a circular plexiglass container (29.2 cm diameter, 49.5 cm height) filled with water to a depth of 30 cm so rats could not support themselves by touching the bottom of the tank. Water was maintained at 22-25° C. and was changed for every animal. Day 1 (Training) consisted of a 15 min acclimation trial, and Day 2 (Testing, 24 h later) consisted of the 5 min test. A time sampling procedure was employed where animals were observed every 5 seconds for the duration of the test session (60 counts or 5 minutes) and scored for immobility (defined as the failure to struggle), swimming (defined as a circular movement around the tank), or climbing (defined as an upwards escape behavior). […]"}, "[2]": {"system": "rats", "test": "Open field test (OFT)", "type": "in vivo, rat", "details": "for time spent in the center of the open field: methylone single dose IP 30 min before test (5 or 15 mg/kg in b361; 5-30 mg/kg in b50)", "protocol": "This behavioral assay, also widely used as an anxiety paradigm, capitalizes on a rodent's innate fear of brightly lit open spaces, which are assumed to induce fear or anxiety. Rodents spend more time hugging the walls of the open field during the test, and these effects correlate to underlying brain regions and mechanisms.\nMethod: Consecutive beam breaks and/or video-tracking of time spent in the center versus periphery of the open field are measured. Also measured are parameters such as distance traveled and ambulatory activity (horizontal and vertical) for the duration of the test session.\nThe open field test (OFT) capitalizes on a rodent's innate fear of open spaces to assess anxiety-like behavior. More time spent in the center of an open field reflects an anxiolytic (anti-anxiety) effect.\nTo investigate whether MBDB has an anti-anxiety (anxiolytic) effect, rats were dosed with MBDB (0.5-30 mg/kg, IP) or vehicle (saline) and 30-minutes later were tested in the open field for 30 minutes. This anxiety test capitalizes on a rodents' innate fear of wide-open spaces and propensity to hug the walls when placed into the open field. Therefore, a drug that increases the time spent in the center of the open field has anxiolytic activity and predicts utility for treating anxiety in humans."}, "[3]": {"target": "SERT (Rattus norvegicus, UniProt P31652)", "sequence (P31652 whole entry)": "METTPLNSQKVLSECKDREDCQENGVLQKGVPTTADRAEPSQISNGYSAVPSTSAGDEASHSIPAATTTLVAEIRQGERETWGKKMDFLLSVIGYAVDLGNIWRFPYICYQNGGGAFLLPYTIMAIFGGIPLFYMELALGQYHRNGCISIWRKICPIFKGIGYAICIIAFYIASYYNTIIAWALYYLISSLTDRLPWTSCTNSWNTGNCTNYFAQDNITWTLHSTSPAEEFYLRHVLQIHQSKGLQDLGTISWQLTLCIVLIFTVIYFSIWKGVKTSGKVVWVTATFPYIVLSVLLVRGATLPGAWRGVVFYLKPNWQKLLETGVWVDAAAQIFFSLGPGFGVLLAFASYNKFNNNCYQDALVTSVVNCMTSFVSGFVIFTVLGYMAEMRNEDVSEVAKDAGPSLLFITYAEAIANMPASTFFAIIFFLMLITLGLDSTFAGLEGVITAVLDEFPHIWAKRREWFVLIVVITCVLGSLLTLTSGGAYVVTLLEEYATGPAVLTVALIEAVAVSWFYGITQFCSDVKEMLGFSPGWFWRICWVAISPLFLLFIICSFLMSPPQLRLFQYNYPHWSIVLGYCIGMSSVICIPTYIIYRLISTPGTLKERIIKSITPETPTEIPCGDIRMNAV", "test": "[3H]5HT uptake saturation curves with or without methylone", "type": "biochemical", "source_text": "If high concentrations of [^3H] […] Three hot saturation curves were run with the [^3H]"}, "[4]": {"system": "patients with PTSD or MDD; healthy subjects", "test": "Methylone case series (outpatient, CGI-S/CGI-I)", "type": "in vivo, human", "protocol": "CGI-S scale was also evaluated in a subset of patients from Cohort 2 post-treatment. Cohort 2 was evaluated for any observed or reported safety events following a single dosing session.\nClinical Global Impressions (CGI) scale includes 2 components: CGI-S(“severity”) and CGI-I (“improvement”).\nNo protected health information was disclosed, and no consent was obtained from patients for use of their archival data. Case narratives were systematically compiled from data collected as part of routine clinical work. Diagnoses were confirmed by an experienced clinician using semi-structured interviews. Baseline symptom severity was evaluated using the Clinical Global Impressions Scale-Severity (CGI-S). Symptom improvement was evaluated using the Clinical Global Impressions Scale-Improvement (CGI-I) following dosing. […] Because these case narratives were examined retrospectively from routine clinical care records, and not gathered prospectively in a research study, more specific validated rating scales for assessing PTSD symptoms were not available. Additionally, follow-up varied, with the length of follow-up ranging from one week (Case 2) to 15 years (Case 16)."}},
  "note": "“And” between values parts separate entries of the source, which are not always exact repeats. Equal entries are not always repeated. Marks after values point to notes of the source that are not given here.",
  "data": [
    {"smiles": "CNC(C)C(=O)c1ccc2c(c1)OCO2", "note": "(stereo not drawn) [methylone, 3,4-methylenedioxy-N-methylcathinone]", "values": [
      {"measurement": "antidepressant-like effect in FST", "setting": "[1]; 15 mg/kg PO, single dose 2 hours before test, vs vehicle", "result": "significant antidepressant-like effect"},
      {"measurement": "climbing behavior", "setting": "[1]; Example 8, Methylone 5 or 15 mg/kg IP", "result": "significantly increased climbing behavior"},
      {"measurement": "climbing", "setting": "[1]; methylone 5-30 mg/kg IP, 30 min before test", "result": "only increased at the lowest dose"},
      {"measurement": "effectiveness in FST", "setting": "[1]; methylone doses of 10 mg/kg or more", "result": "maximally effective"},
      {"measurement": "swimming", "setting": "[1]; mid and high doses of methylone IP, 30 min before test", "result": "significantly increased swimming"},
      {"measurement": "immobility", "setting": "[1]; single dose 5, 10, 15, 20, 30 mg/kg IP 30 min before test, vs saline vehicle", "result": "significantly reduced immobility"},
      {"measurement": "locomotor activity in OFT", "setting": "[2]; methylone 15 or 30 mg/kg IP", "result": "significant increase in locomotor activity"},
      {"measurement": "time spent in the center of the open field", "setting": "[2]", "result": "significantly increases the time spent in the center"},
      {"measurement": "time spent in the center of the open field", "setting": "[2]; listed as Methylone", "result": "significantly increased center time"},
      {"measurement": "effect on Bmax of [3H]5HT uptake", "setting": "[3]", "result": "no decrease in Bmax"},
      {"measurement": "type of interaction at the SERT", "setting": "[3]; two concentrations of methylone", "result": "competitive"},
      {"measurement": "adverse effects", "setting": "[4]; Cohort 1, 4 healthy subjects, total dose 790-870 mg in one session", "result": "no adverse effects or after-effects were observed or reported"},
      {"measurement": "patients with initial improvement at first methylone session", "setting": "[4]; Cohort 2 (25 of 28 patients)", "result": "~90", "unit": "%"},
      {"measurement": "Number of cases with highest observed CGI-I 1", "setting": "[4]; Cohort 2, N = 28", "result": "11*"},
      {"measurement": "Number of cases with highest observed CGI-I 2", "setting": "[4]; Cohort 2, N = 28", "result": 13},
      {"measurement": "Number of cases with highest observed CGI-I 3", "setting": "[4]; Cohort 2, N = 28", "result": 4},
      {"measurement": "Number of cases with highest observed CGI-I 4", "setting": "[4]; Cohort 2, N = 28", "result": 0},
      {"measurement": "Number of cases with highest observed CGI-I 5", "setting": "[4]; Cohort 2, N = 28", "result": 0},
      {"measurement": "Number of cases with highest observed CGI-I 6", "setting": "[4]; Cohort 2, N = 28", "result": 0},
      {"measurement": "Number of cases with highest observed CGI-I 7", "setting": "[4]; Cohort 2, N = 28", "result": 0},
      {"measurement": "number of patients achieving a CGI-I of 1 or 2", "setting": "[4]; Example 5, 21 PTSD patients", "result": 17, "unit": "patients"},
      {"measurement": "tolerability", "setting": "[4]; Example 5, 21 PTSD patients, oral 100 to 1,020 mg", "result": "generally well tolerated"},
      {"measurement": "Best CGI-S post-treatment", "setting": "[4]; individual cases, Cohort 2", "result": "1 and 4 and 2 and 3"},
      {"measurement": "CGI-S max change from BL", "setting": "[4]; individual cases, Cohort 2", "result": "−3 (4×) and −4"}
    ]}
  ]
}
